{"source": "PubChem BioAssay (NCI)", "assay_in_all_cases": "growth of human tumour cells (NCI), 384-well format", "key": {"[1]": {"system": "ACHN renal"}, "[2]": {"system": "MOLT-4 leukemia"}, "[3]": {"system": "RPMI-8226 leukemia"}, "[4]": {"system": "HOP-62 NSCLC"}, "[5]": {"system": "OVCAR-4 ovarian"}, "[6]": {"system": "OVCAR-8 ovarian"}, "[7]": {"system": "SNB-19 CNS"}, "[8]": {"system": "MDA-MB-231 breast"}, "[9]": {"system": "HL-60(TB) leukemia"}, "[10]": {"system": "K-562 leukemia"}, "[11]": {"system": "SF-295 CNS"}, "[12]": {"system": "HCT-15 colon"}, "[13]": {"system": "IGROV1 ovarian"}, "[14]": {"system": "CAKI-1 renal"}, "[15]": {"system": "SK-MEL-28 melanoma"}, "[16]": {"system": "CCRF-CEM leukemia"}, "[17]": {"system": "HOP-92 NSCLC"}, "[18]": {"system": "SNB-75 CNS"}, "[19]": {"system": "MALME-3M melanoma"}, "[20]": {"system": "HCT-116 colon"}, "[21]": {"system": "UACC-257 melanoma"}, "[22]": {"system": "SK-MEL-2 melanoma"}, "[23]": {"system": "TK-10 renal"}, "[24]": {"system": "U251 glioblastoma"}, "[25]": {"system": "786-0 renal"}, "[26]": {"system": "MCF7 breast"}, "[27]": {"system": "RXF 393 renal"}, "[28]": {"system": "A549 NSCLC"}, "[29]": {"system": "NCI-H322M lung"}, "[30]": {"system": "UO-31 renal"}, "[31]": {"system": "SW-620 colon"}, "[32]": {"system": "NCI-H522 lung"}, "[33]": {"system": "NCI/ADR-RES ovarian"}, "[34]": {"system": "SK-OV-3 ovarian"}, "[35]": {"system": "MDA-MB-435 melanoma"}, "[36]": {"system": "SN12C renal"}, "[37]": {"system": "SF-539 CNS"}, "[38]": {"system": "DU-145 prostate"}, "[39]": {"system": "MDA-MB-468 breast"}, "[40]": {"system": "NCI-H23 lung"}, "[41]": {"system": "BT-549 breast"}, "[42]": {"system": "A498 renal"}, "[43]": {"system": "OVCAR-5 ovarian"}, "[44]": {"system": "OVCAR-3 ovarian"}, "[45]": {"system": "SF-268 CNS"}, "[46]": {"system": "HS 578T breast"}, "[47]": {"system": "KM12 colon"}, "[48]": {"system": "PC-3 prostate"}, "[49]": {"system": "NCI-H226 lung"}, "[50]": {"system": "UACC-62 melanoma"}, "[51]": {"system": "M14 melanoma"}, "[52]": {"system": "T-47D breast"}, "[53]": {"system": "HT29 colon"}}, "note": "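GI50: concentration for 50% inhibition of growth. TGI: concentration producing complete growth inhibition.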"}
{"compound": "CCCCC(=O)OCC(=O)[C@]1(O)Cc2c(O)c3c(c(O)c2[C@@H](OC2CC(NC(=O)C(F)(F)F)C(O)C(C)O2)C1)C(=O)c1c(OC)cccc1C3=O", "note": "(some centres undefined)", "values": [{"measurement": "GI50", "setting": "[1]", "result": 213, "unit": "nM"}, {"measurement": "TGI", "setting": "[1]", "result": 1890, "unit": "nM"}, {"measurement": "TGI", "setting": "[2]", "result": 10.4, "unit": "nM"}, {"measurement": "GI50", "setting": "[3]", "result": 12.9, "unit": "nM"}, {"measurement": "TGI", "setting": "[3]", "result": 36, "unit": "nM"}, {"measurement": "GI50", "setting": "[4]", "result": 42.1, "unit": "nM"}, {"measurement": "TGI", "setting": "[4]", "result": 327, "unit": "nM"}, {"measurement": "GI50", "setting": "[5]", "result": 1680, "unit": "nM"}, {"measurement": "TGI", "setting": "[5]", "result": 7010, "unit": "nM"}, {"measurement": "GI50", "setting": "[6]", "result": 73.3, "unit": "nM"}, {"measurement": "TGI", "setting": "[6]", "result": 1810, "unit": "nM"}, {"measurement": "GI50", "setting": "[7]", "result": 64.8, "unit": "nM"}, {"measurement": "TGI", "setting": "[7]", "result": 11900, "unit": "nM"}, {"measurement": "GI50", "setting": "[8]", "result": 126, "unit": "nM"}, {"measurement": "TGI", "setting": "[8]", "result": 2100, "unit": "nM"}, {"measurement": "TGI", "setting": "[9]", "result": 16.6, "unit": "nM"}, {"measurement": "GI50", "setting": "[10]", "result": 104, "unit": "nM"}, {"measurement": "TGI", "setting": "[10]", "result": 1760, "unit": "nM"}, {"measurement": "GI50", "setting": "[11]", "result": 53.6, "unit": "nM"}, {"measurement": "TGI", "setting": "[11]", "result": 1460, "unit": "nM"}, {"measurement": "GI50", "setting": "[12]", "result": 98.5, "unit": "nM"}, {"measurement": "TGI", "setting": "[12]", "result": 1620, "unit": "nM"}, {"measurement": "GI50", "setting": "[13]", "result": 1110, "unit": "nM"}, {"measurement": "TGI", "setting": "[13]", "result": 3860, "unit": "nM"}, {"measurement": "GI50", "setting": "[14]", "result": 128, "unit": "nM"}, {"measurement": "TGI", "setting": "[14]", "result": 2530, "unit": "nM"}, {"measurement": "GI50", "setting": "[15]", "result": 468, "unit": "nM"}, {"measurement": "TGI", "setting": "[15]", "result": 2020, "unit": "nM"}, {"measurement": "GI50", "setting": "[16]", "result": 17.3, "unit": "nM"}, {"measurement": "TGI", "setting": "[16]", "result": 32.3, "unit": "nM"}, {"measurement": "GI50", "setting": "[17]", "result": 142, "unit": "nM"}, {"measurement": "TGI", "setting": "[17]", "result": 19200, "unit": "nM"}, {"measurement": "GI50", "setting": "[18]", "result": 142, "unit": "nM"}, {"measurement": "TGI", "setting": "[18]", "result": 1290, "unit": "nM"}, {"measurement": "GI50", "setting": "[19]", "result": 188, "unit": "nM"}, {"measurement": "TGI", "setting": "[19]", "result": 1660, "unit": "nM"}, {"measurement": "GI50", "setting": "[20]", "result": 49, "unit": "nM"}, {"measurement": "TGI", "setting": "[20]", "result": 34000, "unit": "nM"}, {"measurement": "GI50", "setting": "[21]", "result": 404, "unit": "nM"}, {"measurement": "TGI", "setting": "[21]", "result": 1740, "unit": "nM"}, {"measurement": "GI50", "setting": "[22]", "result": 372, "unit": "nM"}, {"measurement": "TGI", "setting": "[22]", "result": 991, "unit": "nM"}, {"measurement": "GI50", "setting": "[23]", "result": 997, "unit": "nM"}, {"measurement": "TGI", "setting": "[23]", "result": 5090, "unit": "nM"}, {"measurement": "GI50", "setting": "[24]", "result": 45, "unit": "nM"}, {"measurement": "TGI", "setting": "[24]", "result": 10400, "unit": "nM"}, {"measurement": "GI50", "setting": "[25]", "result": 64.2, "unit": "nM"}, {"measurement": "TGI", "setting": "[25]", "result": 1980, "unit": "nM"}, {"measurement": "GI50", "setting": "[26]", "result": 84.9, "unit": "nM"}, {"measurement": "TGI", "setting": "[26]", "result": 7560, "unit": "nM"}, {"measurement": "GI50", "setting": "[27]", "result": 320, "unit": "nM"}, {"measurement": "TGI", "setting": "[27]", "result": 1940, "unit": "nM"}, {"measurement": "GI50", "setting": "[28]", "result": 84.4, "unit": "nM"}, {"measurement": "TGI", "setting": "[28]", "result": 1780, "unit": "nM"}, {"measurement": "GI50", "setting": "[29]", "result": 2420, "unit": "nM"}, {"measurement": "TGI", "setting": "[29]", "result": 15200, "unit": "nM"}, {"measurement": "GI50", "setting": "[30]", "result": 1480, "unit": "nM"}, {"measurement": "TGI", "setting": "[30]", "result": 2990, "unit": "nM"}, {"measurement": "GI50", "setting": "[31]", "result": 75.3, "unit": "nM"}, {"measurement": "TGI", "setting": "[31]", "result": 16200, "unit": "nM"}, {"measurement": "GI50", "setting": "[32]", "result": 101, "unit": "nM"}, {"measurement": "TGI", "setting": "[32]", "result": 1000, "unit": "nM"}, {"measurement": "GI50", "setting": "[33]", "result": 7460, "unit": "nM"}, {"measurement": "TGI", "setting": "[33]", "result": 44100, "unit": "nM"}, {"measurement": "GI50", "setting": "[34]", "result": 107, "unit": "nM"}, {"measurement": "TGI", "setting": "[34]", "result": 5440, "unit": "nM"}, {"measurement": "GI50", "setting": "[35]", "result": 738, "unit": "nM"}, {"measurement": "TGI", "setting": "[35]", "result": 2630, "unit": "nM"}, {"measurement": "GI50", "setting": "[36]", "result": 60.6, "unit": "nM"}, {"measurement": "TGI", "setting": "[36]", "result": 1370, "unit": "nM"}, {"measurement": "GI50", "setting": "[37]", "result": 73.1, "unit": "nM"}, {"measurement": "TGI", "setting": "[37]", "result": 1340, "unit": "nM"}, {"measurement": "GI50", "setting": "[38]", "result": 37.1, "unit": "nM"}, {"measurement": "TGI", "setting": "[38]", "result": 1000, "unit": "nM"}, {"measurement": "GI50", "setting": "[39]", "result": 29.9, "unit": "nM"}, {"measurement": "TGI", "setting": "[39]", "result": 85.9, "unit": "nM"}, {"measurement": "GI50", "setting": "[40]", "result": 60.3, "unit": "nM"}, {"measurement": "TGI", "setting": "[40]", "result": 1150, "unit": "nM"}, {"measurement": "GI50", "setting": "[41]", "result": 73.8, "unit": "nM"}, {"measurement": "TGI", "setting": "[41]", "result": 1440, "unit": "nM"}, {"measurement": "GI50", "setting": "[42]", "result": 87.5, "unit": "nM"}, {"measurement": "TGI", "setting": "[42]", "result": 2870, "unit": "nM"}, {"measurement": "GI50", "setting": "[43]", "result": 1240, "unit": "nM"}, {"measurement": "TGI", "setting": "[43]", "result": 5620, "unit": "nM"}, {"measurement": "GI50", "setting": "[44]", "result": 1200, "unit": "nM"}, {"measurement": "TGI", "setting": "[44]", "result": 44500, "unit": "nM"}, {"measurement": "GI50", "setting": "[45]", "result": 70.2, "unit": "nM"}, {"measurement": "TGI", "setting": "[45]", "result": 2110, "unit": "nM"}, {"measurement": "GI50", "setting": "[46]", "result": 122, "unit": "nM"}, {"measurement": "TGI", "setting": "[46]", "result": 1870, "unit": "nM"}, {"measurement": "GI50", "setting": "[47]", "result": 99.6, "unit": "nM"}, {"measurement": "TGI", "setting": "[47]", "result": 1700, "unit": "nM"}, {"measurement": "GI50", "setting": "[48]", "result": 1020, "unit": "nM"}, {"measurement": "TGI", "setting": "[48]", "result": 4020, "unit": "nM"}, {"measurement": "GI50", "setting": "[49]", "result": 122, "unit": "nM"}, {"measurement": "TGI", "setting": "[49]", "result": 1190, "unit": "nM"}, {"measurement": "GI50", "setting": "[50]", "result": 50.6, "unit": "nM"}, {"measurement": "TGI", "setting": "[50]", "result": 1020, "unit": "nM"}, {"measurement": "GI50", "setting": "[51]", "result": 73.2, "unit": "nM"}, {"measurement": "TGI", "setting": "[51]", "result": 1380, "unit": "nM"}, {"measurement": "GI50", "setting": "[52]", "result": 96.2, "unit": "nM"}, {"measurement": "TGI", "setting": "[52]", "result": 2570, "unit": "nM"}, {"measurement": "GI50", "setting": "[53]", "result": 303, "unit": "nM"}, {"measurement": "TGI", "setting": "[53]", "result": 2290, "unit": "nM"}]}
